Test results: ChEMBL document CHEMBL1131929, “New lead compounds for brassinosteroid biosynthesis inhibitors” (1999)

Tests used:
Assay type in all cases: functional
[1] = tested on: Lepidium sativum; experiment: Inhibitory activity on cress growth at a concentration of 5 uM
[2] = tested on: Lepidium sativum; experiment: Inhibitory activity on cress growth at a concentration of 1 uM
[3] = tested on: Lepidium sativum; experiment: Inhibitory activity on cress growth at a concentration of 0.5 uM
[4] = tested on: Lepidium sativum; experiment: Inhibitory activity on cress growth at a concentration of 0.1 uM
[5] = tested on: Oryza sativa; experiment: Compound was tested for its activity in rice stem elongation test at a concentration of 1 uM Stem length was measured after 7 days of transplantation
[6] = tested on: Lepidium sativum; experiment: Inhibitory activity on cress growth at a concentration of 0.05 uM

SMILES	Hypocotyl length [1] [cm]	Hypocotyl length [2] [cm]	Hypocotyl length [3] [cm]	Hypocotyl length [4] [cm]	Rice stem length [5] [cm]	Hypocotyl length [6] [cm]
CC(O)(c1ccccc1)C(Cc1ccc(Cl)cc1)n1cncn1 (centres undefined)	0.5	0.75	1.25	~2.25	~2.7	~2
COc1cccc(/C=C(\C(O)C(C)(C)C)n2cncn2)c1 (centres undefined)					2.7	
OC(c1ccccc1)C(Cc1ccc(Cl)cc1)n1cncn1 (centres undefined)					~2.6	
CC(C)(C)C(O)/C(=C\c1ccc(Cl)cc1Cl)n1cncn1 (centres undefined)					1.2	
CC(C)(C)C(O)/C(=C\c1ccc(Cl)cc1)n1cncn1 (centres undefined)	0.5	~0.51	~0.51	~0.52	1.4	1
CC(C)(C)C(O)C(CCc1ccccc1)n1cncn1 (centres undefined)					~2	
CCCCOc1ccc(/C=C(\C(O)C(C)(C)C)n2cncn2)cc1 (centres undefined)					2.4	
OC(/C(=C\c1ccc(Cl)cc1)n1cncn1)c1ccccc1 (centres undefined)		~0.75	1	1.75	2.7	~2
CC(C)(C)C(O)C(Cc1ccc(Cl)cc1)n1cncn1 (centres undefined)					1	
CC(C)(C)C(O)C(CCCOc1ccccc1)n1cncn1 (centres undefined)					2.1	
